Legend:
[1] = biological target: T1, E. indica glypS EPSPS (Eleusine indica, UniProt Q95AK0); assay: enzyme kinetics, Km(PEP) and Ki (glyphosate); type: biochemical; settings: apparent Km, saturating S3P
T1 sequence (Q95AK0 1-445): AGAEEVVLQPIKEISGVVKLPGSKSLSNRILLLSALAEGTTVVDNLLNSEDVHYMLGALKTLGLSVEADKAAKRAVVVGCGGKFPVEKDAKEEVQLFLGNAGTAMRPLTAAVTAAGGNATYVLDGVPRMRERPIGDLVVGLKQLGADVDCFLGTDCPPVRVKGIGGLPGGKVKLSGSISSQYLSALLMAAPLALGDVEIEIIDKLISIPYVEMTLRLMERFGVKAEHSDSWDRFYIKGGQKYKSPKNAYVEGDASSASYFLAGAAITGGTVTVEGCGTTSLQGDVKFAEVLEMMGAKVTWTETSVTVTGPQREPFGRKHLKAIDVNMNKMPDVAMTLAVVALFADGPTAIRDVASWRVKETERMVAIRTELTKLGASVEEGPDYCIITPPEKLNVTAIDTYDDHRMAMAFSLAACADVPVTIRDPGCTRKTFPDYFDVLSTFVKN
Method: Calculations, graphical representation, and statistical analysis of enzyme kinetic data are performed using GraFit version 3.0 software (Erithacus Software Ltd., Staines, U.K.).

[2] = biological target: EPSPS activity in extracts from the glyphosate tolerant E. indica biotype (Eleusine indica, UniProt Q95AK1); settings: read-out: I50 (glyphosate); tolerant biotype plant extract; 0.5 mM PEP, 1 mM shikimate-3-phosphate, 25°C; Figure 4
Sequence of EPSPS activity in extracts from the glyphosate tolerant E. indica biotype (Q95AK1 entry or part of it): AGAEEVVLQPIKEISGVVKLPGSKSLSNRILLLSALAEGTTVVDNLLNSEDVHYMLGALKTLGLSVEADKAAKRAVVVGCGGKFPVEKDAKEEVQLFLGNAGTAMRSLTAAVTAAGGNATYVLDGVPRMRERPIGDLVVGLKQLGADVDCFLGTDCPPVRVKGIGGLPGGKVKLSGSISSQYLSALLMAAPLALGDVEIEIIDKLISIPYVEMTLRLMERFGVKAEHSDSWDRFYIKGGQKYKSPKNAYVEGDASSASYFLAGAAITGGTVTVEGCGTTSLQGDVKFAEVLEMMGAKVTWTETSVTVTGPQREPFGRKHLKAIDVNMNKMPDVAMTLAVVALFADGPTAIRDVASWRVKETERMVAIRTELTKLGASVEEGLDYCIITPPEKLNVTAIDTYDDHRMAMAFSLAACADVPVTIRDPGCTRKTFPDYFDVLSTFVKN
Method: Preparation of extracts and radiometric EPSP synthase assays are performed using methods adapted from published procedures (Padgette et al., J. Biol. Chem. 266:22364-22369 (1991). Crown regions are dissected from whole plants, pulverized under liquid nitrogen with a mortar and pestle, then stored at -80°C prior to extraction. Homogenates are prepared from 0.5 g tissue per sample in 25 ml extraction buffer (100 mM TrisCl, 10 % glycerol, 1 mM EDTA, 1 mM benzamidine, 1 mM dithiothreitol, 1 mM 4-(2-aminoethyl)-benzenesulfonyl floride HCl, 0.1 mM leupeptin, pH 7.4) at 4°C using a model PT3000 Polytron homogenizer (Brinkman Instuments Inc., Westbury, NY). Debris is removed by 0.2 µm filtration, then the resulting supernatant is concentrated and desalted using an Ultrafree-15 centrifugal filtration unit (cat.# UFV2-BGC-10, Millipore Corp., Bedford, MA). Final sample volumes are approximately 0.5 ml. Protein concentrations are determined spectrophotometrically using the Bio-Rad protein assay reagent (cat.#500-0006, Bio-Rad Laboratories, Hercules, CA). EPSPS specific activities are determined by assaying 10 µl extract at 25°C for 5- 15 min. […] Reactions are quenched with the addition of 50 µl 9:1 ethanol: 0.1 M acetic acid. […]

[3] = test system: E. coli SR481 cells transformed with pMON45364 (Ei.EPSPS:glypR); assay: growth rates of transgenic E. coli on glyphosate containing media; type: cell-based; settings: growth (O.D.595) in minimal M9 media with 0.0, 0.5, 1.5 or 5.0 mM glyphosate; cells expressing EPSPS of tolerant biotype (pMON45364) versus sensitive biotype (pMON45365); Figure 3
From the text: The EPSP synthase mature protein-coding regions isolated from the glyphosate tolerant and glyphosate sensitive E. indica biotypes, can be directly compared for their ability to confer tolerance to glyphosate in transgenic hosts. […] This was inserted by ligation to facilitate expression and cloning at the ATG start codon of an open reading frame.
These sequences are employed in RT-PCR reactions to generate expression cassettes suitable for cloning into pMON45337 cut with the restriction enzymes Nde1 and EcoR1. RT-PCR reactions are performed with total RNAs extracted from frozen crown samples using the RNeasy Plant Mini Kit (cat.# 74904, Qiagen Inc., Valencia, CA) per manufacturer's instructions. Oligo·dT-primed first-strand cDNAs are prepared from 5 µg samples of total RNA using the Superscript Pre-Amplification System (cat.# 18089-011, Life Technologies, Rockville, MD) per manufacturer's instructions. Two µl of first-strand cDNA are then used to generate E. indica EPSP synthase expression cassettes via polymerase chain reaction. The oligonucleotides are added in 50 µl RT-PCR reactions at a final concentration of 0.4 µM. […]

[4] = biological target: native EPSPS from E. coli (Escherichia coli, UniProt P0A6D3); settings: read-out: apparent Ki for glyphosate; cited from earlier work
Sequence of native EPSPS from E. coli (P0A6D3 whole entry): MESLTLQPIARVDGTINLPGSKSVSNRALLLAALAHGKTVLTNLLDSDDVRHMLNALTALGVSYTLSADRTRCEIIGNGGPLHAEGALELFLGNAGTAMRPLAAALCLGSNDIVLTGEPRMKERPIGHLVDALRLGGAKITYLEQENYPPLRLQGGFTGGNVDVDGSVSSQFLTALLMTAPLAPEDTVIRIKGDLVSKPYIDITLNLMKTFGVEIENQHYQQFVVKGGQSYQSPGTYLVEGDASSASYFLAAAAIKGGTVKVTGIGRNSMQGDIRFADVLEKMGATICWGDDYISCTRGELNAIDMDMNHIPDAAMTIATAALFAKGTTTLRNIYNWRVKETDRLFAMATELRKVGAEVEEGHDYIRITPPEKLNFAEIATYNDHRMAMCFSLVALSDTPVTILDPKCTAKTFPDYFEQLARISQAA

SMILES | KmPEP [1] [M] | IC50 [2] [µM] | increase in tolerance to glyphosate [3] | Ki [4] [µM]
C=C(OP(=O)(O)O)C(=O)O [PEP, phosphoenolpyruvate] | 5 |  |  | 
O=C(O)CNCP(=O)(O)O [glyphosate, N-phosphonomethylglycine] |  | ~16 | approximately three-fold | 0.5

Source: patent EP1582583A2 (priority 2000, dated 2001)
